Assay results from article PMC3174134, “Lucanthone and Its Derivative Hycanthone Inhibit Apurinic Endonuclease-1 (APE1) by Direct Protein Binding” (PLoS ONE, 2011).
Where two headings read alike, the source gives them in different places.

Legend:
[1] = target: T1, APE1 (Homo sapiens, UniProt P27695); test: APE1 endonuclease activity: incision of depurinated plasmid (pUC18) DNA; type: biochemical; design: the full length APE1 protein was successfully expressed and purified; made in house; host or cells: E. coli BL21/DE3
T1 sequence (P27695 whole entry): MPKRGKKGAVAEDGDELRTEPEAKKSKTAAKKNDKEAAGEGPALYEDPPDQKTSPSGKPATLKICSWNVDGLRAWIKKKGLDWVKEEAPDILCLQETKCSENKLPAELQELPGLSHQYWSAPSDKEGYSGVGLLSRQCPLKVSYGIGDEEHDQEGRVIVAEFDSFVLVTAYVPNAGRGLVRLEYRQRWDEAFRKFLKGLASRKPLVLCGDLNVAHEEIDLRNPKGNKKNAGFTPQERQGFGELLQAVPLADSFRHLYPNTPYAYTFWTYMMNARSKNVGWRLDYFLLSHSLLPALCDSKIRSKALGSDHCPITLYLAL
Description: APE1 endonuclease activity was determined using an assay that measures the conversion of plasmid DNA from supercoiled to relaxed form by incision at an abasic site [35]–[36]. Briefly, the substrate used was 200 ng of depurinated pUC18 DNA in 10 µl of 1× APE1 buffer containing 50 mM Hepes, pH 7.4, 150 mM KCl, 5 mM MgCl2 and 100 µg/ml of BSA in presence of different concentrations of the cell extract (1 µl containing 0–55 ng of total protein). Similar reactions mixtures were set up with untreated pUC18, which served as the internal control. This reaction mixture was incubated at 37°C for 15 min, and the reaction was stopped by addition of alkaline stop mix (0.25% bromocresol green in 0.25N NaOH, 50% glycerol) and left at room temperature for 10–15 min. Then the products were resolved on a 0.8% agarose gel in 40 mM Tris-acetate and 2 mM EDTA for 2 h. The gel was stained with ethidium bromide to visualize supercoiled and relaxed plasmid DNA and imaged with a digital imaging system and the area under the supercoiled and relaxed form was determined. Final calculations were done in femtomoles (fmol) of abasic sites incised/min/mg protein with normalization done using Pyruvate Kinase units (PKU) present in these extracts. Poisson distribution calculations were done on supercoiled and relaxed bands to estimate incisions per plasmid molecule and the resulting depurinated pUC18 had 1 AP site per molecule. The endonuclease activity inhibition by lucanthone was analyzed using standard Lineweaver-Burke Plot to determine if the inhibition was competitive or non-competitive.

[2] = target: T1, APE1; test: EMSA (gel mobility shift) of APE1 DNA binding capacity with THF-containing substrate; type: biochemical; design: the full length APE1 protein was successfully expressed and purified; made in house; host or cells: E. coli BL21/DE3; details: 100 µM drug preincubated with APE1 30 min
Description: In order to elucidate whether lucanthone and hycanthone could inhibit APE1 by interfering with APE1-DNA interaction through their DNA intercalation ability, we measured the DNA binding capacity of APE1 in the presence of lucanthone and hycanthone by incubating different concentrations of APE1 (10 nM and 25 nM) with 100 µM of lucanthone and/or hycanthone for 30 min and subsequently incubating the mixture with 25 nM of THF-containing substrate at 25°C in binding buffer (50 mM HEPES, pH 7.5, 150 mM NaCl, 0.1 mg/ml BSA, 0.5 mM EDTA and 1 mM DTT) for 30 min. THF stands for tetrahydrofuran that represents a synthetic abasic site. This is commonly inserted into an oligonucleotide substrate for measuring APE1 cleavage activity. 5′-incision of THF by APE1 results in a residue that mimics reduced 5′-deoxyribose phosphate group. Since THF group lacks the 1′-OH group, it blocks β-elimination that is required for mediating any dRP lyase activity. The sequence of the APE1 substrate with THF group is 5′[…]-3′ as described by Liu et al.
APE1-DNA complex was then separated from unbound substrate DNA by electrophoresis under native conditions in a 1% agarose-0.1% acrylamide gel at 4°C for 1.5 h as described previously [50]–[51].

[3] = target: T1, APE1; test: Far UV circular dichroism of APE1 with drug (CDSSTR/DICHROWEB); design: the full length APE1 protein was successfully expressed and purified; made in house; host or cells: E. coli BL21/DE3; Helix 1 / Helix 2 / Strand 1 / Strand 2 / Turns / Unordered: unit not given here; details: APE1 plus drug (1 mg/ml, 50 µl), 37°C, 60 min
Description: APE1 and its mutant proteins (10 mg/ml), 50 µl (500 µg) (14 µM) in APE1 buffer (50 mM HEPES, pH 7.4, 150 mM KCl, 5 mM MgCl2), were mixed with lucanthone/hycanthone (1 mg/ml), 50 µl (50 µg), 140 µM and incubated at 37°C for 60 min and far UV-CD spectra were recorded at NSLS U11 beam line at BNL. Lucanthone and hycanthone were also scanned as drug controls. The scanning parameters used were a 0.001 cm path length quartz cell, scanning wavelengths from 260 to 170 nm, bandwidth of 0.5 nm, digital integration time of 1 s, time constant of 200 ms, step size of 1 nm, and sensitivity of 200 µV. The data were corrected with blank subtraction from APE1 buffer alone. The secondary structure for APE1 with or without lucanthone or hycanthone was analyzed using CDSSTR program DICHROWEB [38].

[4] = target: T1, APE1; test: MALDI-TOF analysis of APE1 degradation; design: the full length APE1 protein was successfully expressed and purified; made in house; host or cells: E. coli BL21/DE3; details: 100 µM drug; for APE1 protein fragments by MALDI-TOF / Full length 35.5 kDa APE1 peak by MALDI-TOF: 37°C; for APE1 protein fragments by MALDI-TOF: 2 or 24 h; for Full length 35.5 kDa APE1 peak by MALDI-TOF: 24 h
Description: 100 nM of APE1 protein was treated with 100 µM of lucanthone, hycanthone or CRT at 37°C for 2 h and 24 h and analyzed on sinipinic acid matrix on a Voyager-DE STR (Applied Biosystems) MALDI-TOF instrument at the Proteomics facility at SUNYSB in a linear mode.

Row | SMILES | IC50 ([1]; read-out: IC50 for inhibition of APE1 incision of depurinated plasmid DNA) | Inhibition of DNA binding capacity of APE1 [2] | Av. helix length per segment [3] | Av. strand length per segment [3] | Helix 1 [3] | Helix 2 [3] | Strand 1 [3] | Strand 2 [3] | Turns [3] | Unordered [3] | APE1 protein fragments by MALDI-TOF [4] | Full length 35.5 kDa APE1 peak by MALDI-TOF [4] | IC50 [1] | Kinetics (mode) of inhibition, Lineweaver-Burke plot [1] | Inhibition of endonuclease activity of wild type APE1 ([1]; 100 µM lucanthone, 2 h, 37°C) | AP endonuclease activity of recombinant APE1 ([1]; 10-50 µM, 37°C, 2 h) | Time at which APE1 degradation is seen by MALDI [4]
1 | CCN(CC)CCNc1ccc(CO)c2sc3ccccc3c(=O)c12 [hycanthone] | 80 nM | not at all | 4.020 | 5.799 | 0.00 | 0.069 | 0.267 | 0.141 | 0.124 | 0.399 | cleavage of APE1 as evidenced mainly by 10, 11 and 17 kDa peaks | almost completely degraded | – | – | – | – | –
2 | CCN(CC)CCNc1ccc(C)c2sc3ccccc3c(=O)c12 [lucanthone, 1-[2-diethylaminoethylamino]-4-methylthioxanthen-9-one] | – | marginally inhibited | 4.053 | 5.762 | 0.00 | 0.071 | 0.262 | 0.140 | 0.125 | 0.403 | steady degradation of APE1 into smaller fragments | almost completely degraded | 5000 nM | non-competitive inhibitor | corresponding inhibition of the endonuclease activity | corresponding decrease in AP endonuclease activity | ≤ 2 h
